According to ChEMBL document CHEMBL1201862, “PubChem BioAssay data set” (2004):
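Where inhibition never reached the appropriate level, the endpoint shown equals the highest concentration tested. Otherwise, values were interpolated linearly from a five-concentration, 48-hour dose response in 96-well plates. GI50 is the concentration that inhibits growth by half.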 Active and inactive are the calls of the source. Cut-off read from the data, not from the text of the source: active = GI50 up to about 1.1 µM and inactive = higher.

Columns and labels:
Assay in all cases: growth of human tumour cells (NCI), 48 h
KM-20L2 = test system: KM-20L2
HOP-18 = test system: HOP-18
SNB-78 = test system: SNB-78
DMS-114 = test system: DMS-114
XF498 = test system: XF498
DLD-1 = test system: DLD-1
DMS-273 = test system: DMS-273
LXFL 529 = test system: LXFL 529
RXF 631 = test system: RXF 631

Structure (SMILES) | GI50 (KM-20L2) | GI50 (HOP-18) | GI50 (SNB-78) | GI50 (DMS-114) | GI50 (XF498) | GI50 (DLD-1) | GI50 (DMS-273) | GI50 (LXFL 529) | GI50 (RXF 631)
Nc1nc(SCCNC(=O)CCc2ccc(O)cc2)nc2c1ncn2C1OC(CO)C(O)C1O (configuration not stated) | > 203 µM (inactive) | > 203 µM (inactive) | > 203 µM (inactive) | > 203 µM (inactive) | > 203 µM (inactive) | > 203 µM (inactive) | > 203 µM (inactive) | – | –
O=C(c1ccccc1)c1nc2c(Cl)ccc(Cl)c2cc1C(Br)Br | 1.04 µM (active) | 1.66 µM (inactive) | 2.06 µM (inactive) | 2.04 µM (inactive) | 1.07 µM (active) | 0.444 µM (active) | 1.32 µM (inactive) | 0.39 µM (active) | 1.78 µM (inactive)
Cc1ccc(C)c2c1CCc1cc3ccccc3nc1-2 | > 100 µM (inactive) | 2.65 µM (inactive) | > 100 µM (inactive) | > 100 µM (inactive) | > 100 µM (inactive) | > 100 µM (inactive) | – | > 100 µM (inactive) | –
O=C1C2=C(c3ccccc31)C(c1ccc(F)cc1)N1C(=O)CCSC1=N2 (configuration not stated) | > 100 µM (inactive) | – | – | 71.6 µM (inactive) | > 100 µM (inactive) | > 100 µM (inactive) | > 100 µM (inactive) | 45.4 µM (inactive) | –
Cc1ccc(S(=O)(=O)N2CCC2c2ccccc2)cc1 (configuration not stated) | > 100 µM (inactive) | 80 µM (inactive) | > 100 µM (inactive) | 48.1 µM (inactive) | 74 µM (inactive) | – | 91 µM (inactive) | – | –
COC1/C=C\C=C(/C)C(=O)NC2=CC(=O)C(N)=C(CC(C)CC(OC)C(O)C(C)C=C(C)C1OC(N)=O)C2=O (configuration not stated) | < 0.01 µM (active) | < 0.01 µM (active) | 3.55 µM (inactive) | – | 0.0565 µM (active) | 0.0689 µM (active) | – | 0.0462 µM (active) | 0.303 µM (active)
Cc1ccc(C)c(NC(=O)C(=O)C(C2C(C)CC(=O)C2CC(=O)O)[N+](=O)[O-])c1 (configuration not stated) | > 100 µM (inactive) | – | > 100 µM (inactive) | > 100 µM (inactive) | > 100 µM (inactive) | > 100 µM (inactive) | – | > 100 µM (inactive) | > 100 µM (inactive)
O=c1c2ccccc2c2c3c1cccc3c1cccc3c(=O)c4ccccc4c2c31 | > 100 µM (inactive) | > 100 µM (inactive) | > 100 µM (inactive) | > 100 µM (inactive) | – | > 100 µM (inactive) | > 100 µM (inactive) | > 100 µM (inactive) | > 100 µM (inactive)
CC/C=C1\N=C(c2ccc(Cl)cc2)OC1=O | > 100 µM (inactive) | – | > 100 µM (inactive) | > 100 µM (inactive) | > 100 µM (inactive) | > 100 µM (inactive) | > 100 µM (inactive) | > 100 µM (inactive) | –
O=C(/C=C/c1c(O)ccc2ccccc12)c1ccc([N+](=O)[O-])cc1 | > 100 µM (inactive) | 15.2 µM (inactive) | 21.6 µM (inactive) | 21.3 µM (inactive) | 27.5 µM (inactive) | 18.7 µM (inactive) | > 78.7 µM (inactive) | 16.6 µM (inactive) | –
COc1ccc(C2=NC(C)(C)CO2)cc1 | > 100 µM (inactive) | > 100 µM (inactive) | > 100 µM (inactive) | > 100 µM (inactive) | > 100 µM (inactive) | > 100 µM (inactive) | > 100 µM (inactive) | – | –
CC1CC2CC(=O)CC3(C1)C2CCCN3CCCO (configuration not stated) | – | > 100 µM (inactive) | > 100 µM (inactive) | > 100 µM (inactive) | > 100 µM (inactive) | > 100 µM (inactive) | > 100 µM (inactive) | > 100 µM (inactive) | > 100 µM (inactive)
